Here are results for one substance from US20130064855A1, “REPROGRAMMING IMMUNE ENVIRONMENT IN BREAST CANCER VIA DENDRITIC CELLS” (BAYLOR RESEARCH INSTITUTE, priority 2011, published 2013).

Entries after “also recorded” stand apart in the source; their conditions may differ.

The test system of assay [1] is Hs578T breast cancer cells. Kind of assay: breast tumor growth in tumor bearing humanized mice. The settings on record: curdlan (100 ug/ml) co-injected with DCs and T cells at days 3, 6 and 9 post tumor implantation. It is filed as in vivo, NOD/SCID/β2−/− mice. The source says: Tumor bearing humanized mice: CD34+hematopoietic progenitor cells (HPCs) were obtained from apheresis of adult healthy volunteers mobilized with G-CSF and purified as previously described. The CD34− fraction of apheresis was Ficoll purified, and obtained PBMCs were stored frozen and used as a source of autologous T cells. Three million CD34+HPCs were transplanted intravenously into sublethally irradiated (12 cGy/g body weight of 137Cs γ irradiation) NOD/SCID/β2−/− mice ([…]). After 4 weeks of engraftment 10 million Hs578T breast cancer cells were harvested from cultures and injected subcutaneously into the flanks of the mice. Mice were reconstituted with 10 million CD4+ T cells and 10 million CD8+ T cells autologous to the grafted CD34+ HPCs. CD4+ and CD8+ T cells were positively selected from thawed PBMCs using magnetic selection according to the manufacturer's instructions (Miltenyi Biotec). The purity was routinely >90%. […] Tumor size was monitored every 2-3 d. Tumor volume (ellipsoid) was calculated as follows: [(short diameter)^2×long diameter]/2.
FIGS. 6A and 6B show NOD/SCID/β2−/− mice sub-lethally irradiated the day before tumor implantation. […] Tumor size was monitored every 2-3 d. Tumor volume (ellipsoid) was calculated as follows: [(short diameter)^2×long diameter]/2. […] Supernatant was harvested and cytokines were detected by Luminex.

In another assay the test system is CD8+ T cells. Kind of assay: curdlan-treated, tumor supernatant-activated mDCs co-cultured with allogenic naive total T cells; CD103 staining. It is filed as cell-based, human. The conditions noted are these: mDCs pre-treated with 100 ug/ml curdlan, MDA-MB231 supernatant 48 hrs, co-culture one week. The procedure:
Sorted mDCs (HLA-DR+/CD11c+/CD123−/Lin−) were pre-treated with 100 ug/ml curdlan and activated by supernatant of a breast cancer cell line (MDA-MB231) for 48 hrs and then co-culture with allogenic naive total T cells (FIG. 7A). After one week, cells were collected and stained with intraepithelial marker, CD 103, together with granzymeA and granzymeB staining CD8+ T cells were sorted from in vitro culture and intratumoral inject into NOD-SCID mice. After 3 days, tumors were harvested and digested with collagenase (FIG. 7B).

The test system of assay [2] is myeloid dendritic cells (mDCs). Kind of assay: mDCs pre-treated with curdlan and cultured with breast tumor derived products; phenotype staining and cytokine in supernatant. In kind it is cell-based, human. An excerpt: Isolation and culture of myeloid dendritic cells: DCs were purified from buffy coat of blood from healthy donors. Briefly, DCs were enriched from mononuclear cells by negative selection using a mixture of antibodies against lineage markers for CD3, CD14, CD16, CD19, CD56 and glycophorin A (Dynabeads® Human DC Enrichment Kit, Invitrogen). Cells from negative fraction were immuno-labeled with anti-human FITC-labeled lineage cocktail (CD3, CD14, CD16, CD19, CD20 and CD56, BD biosciences Cat. 340546); PE-labeled CD123 (mIgG1, clone 9F5, BD biosciences Cat. 340545), QR-labeled HLA-DR (mIgG2a, clone HK14, Sigma-Aldrich Cat. R8144) and APC-labeled CD11c (mIgG2b, clone S—HCL-3, BD biosciences Cat. 340544). DCs (lin^−, CD123^−, HLA-DR^+, CD11c^+) were sorted in a FACS Aria cytometer (BD Bioscience). DCs were seeded at 100×10^3 cells/well in 200 μl of medium (RPMI supplemented with glutamine 2 mM, penicillin 50 U/ml, streptomycin 50 μg/ml, MEM non-essential amino acids 0.1 mM, HEPES buffer 10 mM, sodium pyruvate 0.1 mM and 10% of human AB serum). DCs were cultured with medium alone or in the presence of 20 ng/ml of TSLP, or different tumor derived products. After 48 hrs DCs were harvested and washed. The stimulated cells were stained for phenotype analysis or co-culture with allogeneic naïve CD4 T cells.
Tumor factors preparation: Tumor factors were obtained from supernatant of HS578T cells cultured in vitro or by sonication from tumor cell lines, human breast tumor tissue or tumors from humanized mice. Briefly, cell lines were culture in medium (RPMI supplemented with glutamine 2 mM, penicillin 50 U/ml, streptomycin 50 μg/ml, MEM non-essential amino acids 0.1 mM, HEPES buffer 10 mM, sodium pyruvate 0.1 mM and 10% of fetal calf serum), and when the cells reached 90% of confluence fresh medium was added and left the cells in culture for additional 48 hrs. For sonication cells or tissues were placed in PBS and were disrupted during 30 seconds at 4° C., with the power output adjusted at 4.5 level of the 60 sonic dismembrator (Fisher Scientific). Cellular debris were removed by centrifugation and the supernatant was collected and stored at −80° C.
The present inventors believe that DC activators can modulate the functions of DCs and reprogram the immune microenvironment (FIG. 4 A). FIGS. 4B, 4C and 4D show the results when DCs were purified from buffy coat of blood from healthy donors. DCs were cultured with medium alone or in the presence of tumor derived products (FIG. 4B). The curdlan treatment is 3 min at room temperature prior to adding tumor supernatant. After 48 hrs, DCs were harvested and washed. The stimulated cells were staining for phenotype (OX40L, pSTAT4 and pSTAT6). The supernatant of DC culture was used for cytokine (IL-12p70) examination (FIGS. 4C and 4D).

In assay [3] the test system is allogenic naive CD4+ T cells. Put plainly: curdlan-treated, tumor supernatant-activated mDCs co-cultured with allogenic naive CD4+ T cells; intracellular cytokines. It is filed as cell-based, human. The settings on record: mDCs pre-treated with 100 ug/ml curdlan, MDA-MB231 supernatant 48 hrs, co-culture one week. An excerpt: After one week, cells were collected and re-stimulated for intracellular cytokines analysis. The analysis of different studies showing the effect of curdlan treatment in the induction of TNFa+IL-13+ secreting cells is shown in FIG. 5 B.

Setting [4] is: curdlan treatment prior to tumor supernatant, 48 hrs.

On to β-glucan, for which the “breast tumor growth / development” value in assay [1] was “blocks breast tumor growth; also recorded: can inhibit breast tumor development; also recorded: inhibited breast tumor development”. Also, the “expansion of CD8+ T cells expressing CD103” value in the assay on CD8+ T cells was “expand CD8+ T cells expressing CD103”. Further, in assay [2] (setting [4]), the “OX40L expression on mDCs (TSLP-mediated OX40L induction)” value was “inhibition of TSLP-mediated OX40L induction; also recorded: can block OX40L expression” and the “pSTAT4/pSTAT6 ratio in mDCs” value was “pSTAT4/pSTAT6 ratio increase”. The “IL-12p70 secretion by mDCs” value in assay [2] (mDCs activated by breast tumor supernatant, DC culture supernatant, 48 hrs) is “induction of IL-12p70 secretion; also recorded: secrete higher levels of IL-12p70; also recorded: secretion of high levels of IL-12p70”. Further, in assay [2] (tumor associated mDCs), the “STAT6 phosphorylation in mDCs” value is “blocking STAT6 phosphorylation; also recorded: block in STATE phosphorylation”. Besides, the “expansion of TNFα and IL-13-producing CD4+ T cells (inflammatory Th2 phenotype)” value in assay [3] was “can be inhibited; also recorded: do not expand TNFα and IL-13-producing CD4+ T cells; also recorded: non-expansion of TNFα and IL-13-producing CD4+ T cells”.
